This is an account of results in PubChem BioAssay (NCI).

Assay in all cases: inhibition of tumour cell growth, NCI panel, 48 h
The test system of test [1] is M14 melanoma.
In test [2] the test system is MOLT-4 leukemia.
Test [3] deals with T-47D breast.
The test system of test [4] is UO-31 renal.
The subject of test [5] is DU-145 prostate.
In test [6] the test system is U251 CNS.
Test [7] relates to SK-MEL-5 melanoma.
In test [8] the test system is OVCAR-4 ovarian.
The subject of test [9] is NCI-H23 lung.
For test [10], the system named is NCI/ADR-RES ovarian.

Structures are written as SMILES.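 Each compound was tested at five concentrations against cells in 96-well plates for 48 hours. GI50 marks 50% less growth. TGI: total growth inhibition.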 Some results are limits rather than exact numbers.

Consider `Cc1nc2sccn2c1-c1csc(Nc2ccccc2Cl)n1`, for which the GI50 in [1] is 3.38 µM; in test [2], 3.28 µM; in test [3], 2.33 µM; in [4], 3.21 µM; in test [5], 7.87 µM; in [6], 3.7 µM. For the same molecule, the GI50 in [7] was 2.15 µM; in [8] it was 2.35 µM; in test [9], 2.28 µM; in test [10], 2.61 µM. The TGI worked out at 18 µM in test [1]; 17 µM in [2]; 66.5 µM in [3]; 33.6 µM in test [4]; 68.8 µM in test [5]; 24.1 µM in test [6]. Also, the TGI was found to be 10.3 µM in [7], 83.5 µM in [8], 35.4 µM in [9] and 14.5 µM in test [10].

As for `Cn1cc(C2=C(c3c4n(c5ccccc35)CCCCC4)C(=O)NC2=O)c2ccccc21`, the GI50 in test [1] is 4.69 µM; in [2] it was 7.04 µM; in test [3], 8.64 µM; in [4] it was 5.75 µM; in [5], 5.4 µM; in test [6], 6.61 µM. Besides, the GI50 in [7] was 2.66 µM; in [8], 7.32 µM; in [9], 10.6 µM; in test [10], 2.17 µM. The TGI is more than 25 µM in test [1]; more than 25 µM in test [2]; more than 25 µM in test [3]; more than 25 µM in [4]; more than 17.3 µM in [5]; more than 25 µM in test [6]. Further, the TGI in test [7] is 13.1 µM; in test [8] it was more than 25 µM; in test [9] it was more than 25 µM; in test [10] it was more than 25 µM.

With `NS(=O)(=O)OC[C@@H]1C[C@@H](n2ccc3c(NC4CCc5ccccc54)ncnc32)C[C@@H]1O` (stereo not given in full), the GI50 in [1] was 0.712 µM; in [2], 0.37 µM; in [3], 0.0607 µM; in test [4], 11 µM; in test [5] it was 0.384 µM; in [6], 0.559 µM. The GI50 was 0.305 µM in test [7], 15.7 µM in test [8], 1.34 µM in test [9] and 68.8 µM in test [10]. The TGI in test [1] is more than 100 µM; in [2], 11.1 µM; in test [3], 63.6 µM; in test [4], more than 100 µM; in test [5] it was more than 100 µM; in [6] it was 36.9 µM. Further, the TGI in test [7] is 17.2 µM; in test [8], more than 100 µM; in [9], 46.1 µM; in test [10] it was more than 100 µM.

Consider `O=[N+]([O-])c1ccc2c(c1)/C(=N/N=C1c3ccccc3Cc3ccccc31)c1cc([N+](=O)[O-])cc([N+](=O)[O-])c1-2`, for which the TGI in test [1] came to 6.28 µM; in test [2] it was 5.99 µM; in test [3] it was 3.49 µM; in test [4], 4.41 µM; in test [5] it was 13.7 µM; in [6], 10.7 µM. In addition, the TGI in test [7] worked out at 15 µM; in test [8], 3.13 µM; in [9] it was 3.85 µM; in [10], 4.91 µM.

Turning to `Cc1ccc([N+](=O)[O-])cc1NC1=NCCO1`, the TGI in test [1], in test [2], in [3], in test [4], in test [5] and in test [6] was more than 100 µM throughout. For the same molecule, the TGI in test [7], in test [8], in test [9] and in test [10] was more than 100 µM each time.

For `CCC(=O)[C@H](C)[C@@H](OC(=O)[C@H](C)CC)[C@H](C)[C@H]1OC(CC)=C(C)C(=O)[C@@H]1C`, the GI50 was 22.8 µM in test [1]; 19.1 µM in test [2]; 18.1 µM in test [3]; 24 µM in test [4]; 23.4 µM in [5]; 17.6 µM in test [6]. For the same molecule, the GI50 in test [7] is 15.3 µM; in test [8] it was 29 µM; in [9], 19.6 µM; in [10] it was 18.6 µM. Also, the TGI in [1] was 72.5 µM; in test [2] it was 53.6 µM; in test [3] it was more than 100 µM; in test [4] it was 66.6 µM; in test [5], 68.4 µM; in [6], 35.8 µM. Besides, the TGI in test [7] was 28.8 µM; in test [8], more than 100 µM; in [9] it was 92.4 µM; in test [10], 55 µM.

For the molecule `CN1CCN(C2=NCCO2)CC1`, the TGI in [1], in test [2], in test [3], in test [4], in test [5] and in [6] was more than 100 µM in each case. The TGI in test [7], in [8], in [9] and in test [10] was more than 100 µM throughout.

Regarding `OC1CSSC1Cn1cnc2c(Nc3ccc(OCc4cccc(F)c4)c(Cl)c3)ncnc21` (stereo not given), the GI50 in test [1] was 0.0912 µM; in [2] it was 0.441 µM; in test [3] it was 1.3 µM; in test [4] it was 1.45 µM; in [5], 1.19 µM; in test [6], 0.712 µM. Also, the GI50 in test [7] is 0.733 µM; in [8], 1.27 µM; in test [9] it was 0.689 µM; in test [10], 3.26 µM. The TGI was determined as 0.288 µM in test [1]; 1.38 µM in test [2]; 8.4 µM in test [3]; 6.55 µM in test [4]; 4.95 µM in test [5]; 1.43 µM in test [6]. Further, the TGI turned out to be 2.88 µM in [7], 8.53 µM in test [8], 1.73 µM in test [9] and 12.3 µM in test [10].

Consider `Cc1cc(-c2nc(C(=O)Nc3cc4oc(N5CCOCC5)nc4nc3N3CC[C@@H](O)C3)co2)ccn1`, for which the GI50 in [1] is 35.9 µM; in test [2], 38.3 µM; in test [3] it was 22.1 µM; in test [4], 14.9 µM; in test [5], 46.9 µM; in test [6], 74.3 µM. Further, the GI50 in test [7] was 45.7 µM; in test [8], 32.1 µM; in [9], 28.1 µM; in [10], more than 100 µM. Besides, the TGI in test [1] was more than 100 µM; in [2] it was more than 100 µM; in [3] it was more than 100 µM; in [4] it was 68.7 µM; in [5], more than 100 µM; in [6], more than 100 µM. Besides, the TGI in test [7], in test [8], in test [9] and in [10] was more than 100 µM throughout.
